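In this assay, cells in 96-well plates receive the compound at five concentrations for 48 hours. Endpoints are linearly interpolated between the surrounding concentrations. At the TGI there is no net growth.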

Test systems include HCC-2998 colon; K-562 leukemia; KM12 colon; MDA-N; SF-539 CNS; SK-MEL-2 melanoma; SK-MEL-5 melanoma; SR leukemia; SW-620 colon; U251 CNS.
Holding throughout (assay): NCI tumour cell line growth inhibition, 48 h

With `C[C@H](CCc1nc(C#N)c(N)o1)[C@H]1CC[C@H]2[C@@H]3CCC4C[C@@H](O)CC[C@]4(C)[C@H]3C[C@@H](O)[C@]12C` (stereo not given in full), the TGI in the assay on HCC-2998 colon stood at 31.2 µM; in the assay on K-562 leukemia, 39.6 µM; with KM12 colon it was 28.2 µM; in the assay on MDA-N, 30.9 µM; in the assay with SF-539 CNS it was 27.6 µM; with SK-MEL-2 melanoma, 32.2 µM. Further, the TGI in the assay on SK-MEL-5 melanoma amounted to 29.5 µM; in the assay on SR leukemia it was 29 µM; with SW-620 colon it was 27.4 µM; in the assay on U251 CNS, 26.5 µM.

Turning to `CC1=NN(c2ccccc2)C(=O)/C1=C\c1c(C)[nH]n(-c2ccccc2)c1=O`, the TGI in the assay on HCC-2998 colon, in the assay on K-562 leukemia, in the assay with KM12 colon, in the assay with MDA-N, with SF-539 CNS and in the assay on SK-MEL-2 melanoma was above 100 µM in each case. Besides, the TGI in the assay on SK-MEL-5 melanoma, in the assay on SR leukemia, in the assay with SW-620 colon and in the assay with U251 CNS was above 100 µM in each case.

Turning to `O=C1CC(c2cccc([N+](=O)[O-])c2)C2(C(=O)NC(=S)NC2=O)C(c2cccc([N+](=O)[O-])c2)C1` (stereo not given), the TGI was 59.2 µM in the assay with HCC-2998 colon; above 100 µM with K-562 leukemia; above 100 µM in the assay on KM12 colon; above 100 µM with MDA-N; above 100 µM with SF-539 CNS; above 100 µM in the assay with SK-MEL-2 melanoma. Further, the TGI is above 100 µM in the assay on SK-MEL-5 melanoma, above 100 µM in the assay with SR leukemia, above 100 µM in the assay with SW-620 colon and 81.3 µM in the assay with U251 CNS.

Turning to `COC(=O)[C@@H]1C=CCN1S(=O)(=O)c1ccc(C)cc1`, the TGI with HCC-2998 colon, in the assay on K-562 leukemia, with KM12 colon, in the assay with MDA-N, in the assay on SF-539 CNS and in the assay with SK-MEL-2 melanoma was above 100 µM each time. Also, the TGI with SK-MEL-5 melanoma is above 100 µM; in the assay with SR leukemia, 58.8 µM; in the assay with SW-620 colon, above 100 µM; in the assay on U251 CNS it was above 100 µM.

`O=[N+]([O-])/C(Cl)=C(\NCCO)C(Cl)=C(Cl)Cl`: the TGI in the assay with HCC-2998 colon is above 100 µM; in the assay on K-562 leukemia, 39.7 µM; in the assay with KM12 colon it was above 100 µM; with MDA-N, above 96.3 µM; in the assay on SF-539 CNS, above 100 µM; in the assay on SK-MEL-2 melanoma it was above 100 µM. The TGI in the assay on SK-MEL-5 melanoma was above 100 µM; in the assay with SR leukemia it was 49.2 µM; in the assay on SW-620 colon it was 77.4 µM; in the assay with U251 CNS, above 100 µM.

In the case of `CC(Cl)(CCC(Cl)C(C)(C)Cl)C(=O)CBr` (stereo not given), the TGI with HCC-2998 colon is 30.9 µM; in the assay on K-562 leukemia, above 100 µM; with KM12 colon it was 29.6 µM; in the assay with MDA-N, 21.3 µM; with SF-539 CNS it was 29.8 µM; in the assay on SK-MEL-2 melanoma, 30.3 µM. The TGI in the assay on SK-MEL-5 melanoma was 21 µM; in the assay with SR leukemia, 6.54 µM; in the assay with SW-620 colon, 4.96 µM; in the assay with U251 CNS, 29.8 µM.

`CCOP(=O)(OCC)C(c1ccccc1)N(C(=O)NC(F)(F)F)c1ccc(C)cc1` (stereo not given): the TGI in the assay with HCC-2998 colon, with K-562 leukemia, with KM12 colon, in the assay with MDA-N, in the assay with SF-539 CNS and with SK-MEL-2 melanoma was above 100 µM throughout. Also, the TGI in the assay on SK-MEL-5 melanoma, with SR leukemia, with SW-620 colon and in the assay with U251 CNS was above 100 µM in each case.

On to `C(=Nc1ccc(-c2nc3ccccc3s2)cc1)c1cccs1`, for which the TGI in the assay on HCC-2998 colon, with K-562 leukemia, in the assay on KM12 colon, in the assay on MDA-N, with SF-539 CNS and in the assay with SK-MEL-2 melanoma was above 100 µM throughout. The TGI in the assay on SK-MEL-5 melanoma, in the assay on SR leukemia, with SW-620 colon and in the assay on U251 CNS was above 100 µM each time.

Turning to `O=C(NC1=C(Cl)C(=O)c2ccccc2C1=O)C(=O)c1c(O)c2ccccc2oc1=O`, the TGI in the assay with HCC-2998 colon was 20.4 µM; with K-562 leukemia, above 100 µM; in the assay with KM12 colon it was 31.3 µM; in the assay with MDA-N, 2.7 µM; in the assay on SF-539 CNS it was 11.1 µM; in the assay with SK-MEL-2 melanoma it was 10.3 µM. Also, the TGI in the assay with SK-MEL-5 melanoma is 1.6 µM; with SR leukemia, 80.6 µM; in the assay on SW-620 colon, above 40.9 µM; with U251 CNS it was 20.9 µM.

For `O=C(Oc1cncc(Cl)c1)c1cc2ccccc2sc1=O`, the TGI with HCC-2998 colon is above 100 µM; in the assay on K-562 leukemia, above 100 µM; with KM12 colon, above 100 µM; in the assay with MDA-N, above 100 µM; in the assay on SF-539 CNS, 57.9 µM; in the assay with SK-MEL-2 melanoma it was 90.7 µM. The TGI in the assay with SK-MEL-5 melanoma was above 100 µM; in the assay on SR leukemia, 76.8 µM; in the assay with SW-620 colon it was above 100 µM; in the assay with U251 CNS, above 100 µM.

On to `COC1(C)CCC(OS(C)(=O)=O)CO1` (stereo not given), for which the TGI in the assay with HCC-2998 colon, with K-562 leukemia, with KM12 colon, in the assay on MDA-N, with SF-539 CNS and with SK-MEL-2 melanoma was above 100 µM throughout. Moreover, the TGI in the assay on SK-MEL-5 melanoma, with SR leukemia, with SW-620 colon and with U251 CNS was above 100 µM in each case.

Regarding `Cc1cc2ccccc2oc(=O)/c1=N\Nc1ccccc1`, the TGI in the assay with HCC-2998 colon, with K-562 leukemia, in the assay with KM12 colon, in the assay with MDA-N, in the assay on SF-539 CNS and with SK-MEL-2 melanoma was above 100 µM in each case. Moreover, the TGI with SK-MEL-5 melanoma, in the assay with SR leukemia, with SW-620 colon and in the assay on U251 CNS was above 100 µM each time.

For the compound `Cc1cccc(NC(=S)Nc2cccc(Cl)c2)n1`, the TGI in the assay on HCC-2998 colon, in the assay on K-562 leukemia, in the assay on KM12 colon, with MDA-N, with SF-539 CNS and in the assay on SK-MEL-2 melanoma was above 100 µM each time. The TGI in the assay with SK-MEL-5 melanoma, in the assay on SR leukemia, in the assay on SW-620 colon and in the assay with U251 CNS was above 100 µM in each case.

`O=C1OC2(CCCCC2)C(Oc2ccc(Cl)cc2)=C1F`: the TGI with HCC-2998 colon is 57 µM; in the assay on K-562 leukemia, above 100 µM; in the assay with KM12 colon it was above 100 µM; with MDA-N it was above 100 µM; in the assay on SF-539 CNS it was above 100 µM; in the assay on SK-MEL-2 melanoma it was 61.8 µM. In addition, the TGI was 33.3 µM in the assay on SK-MEL-5 melanoma, above 100 µM with SR leukemia, above 100 µM with SW-620 colon and above 100 µM with U251 CNS.

For `Clc1cc(Cl)nc(Nc2ccc3c(c2)CCC3)n1`, the TGI was 30.4 µM with HCC-2998 colon; 46 µM in the assay with K-562 leukemia; 59.1 µM with KM12 colon; above 100 µM with MDA-N; above 100 µM with SF-539 CNS; above 100 µM in the assay on SK-MEL-2 melanoma. For the same compound, the TGI in the assay with SK-MEL-5 melanoma is 57.5 µM; in the assay on SR leukemia, 77.6 µM; in the assay with SW-620 colon, above 100 µM; in the assay on U251 CNS, above 100 µM.

For `CC(=O)OC1C2CCC3CC2C2(SCCS2)C31` (stereo not given), the TGI in the assay with HCC-2998 colon, in the assay with K-562 leukemia, in the assay on KM12 colon, in the assay on MDA-N, with SF-539 CNS and in the assay with SK-MEL-2 melanoma was above 100 µM in each case. Moreover, the TGI with SK-MEL-5 melanoma, in the assay with SR leukemia, with SW-620 colon and in the assay with U251 CNS was above 100 µM throughout.

Take `CC(C)(C)c1cc(C(C)(C)C)c(SC2OC(CO)C(O)C(O)C2O)c(O)c1O` (stereo not given): the TGI was 18.2 µM in the assay on HCC-2998 colon; above 39.8 µM in the assay with K-562 leukemia; 20.8 µM in the assay with KM12 colon; 15.8 µM in the assay on MDA-N; 12.7 µM with SF-539 CNS; 25 µM in the assay on SK-MEL-2 melanoma. For the same compound, the TGI in the assay on SK-MEL-5 melanoma was 18.6 µM; in the assay on SR leukemia it was above 53 µM; in the assay with SW-620 colon it was 49.9 µM; with U251 CNS it was 20.3 µM.

For the compound `CN1CCC(O)(OC(=O)C(c2ccccc2)C2(O)CCCC2)CC1` (stereo not given), the TGI in the assay on HCC-2998 colon, with K-562 leukemia, in the assay on KM12 colon, in the assay on MDA-N, in the assay on SF-539 CNS and with SK-MEL-2 melanoma was above 100 µM in each case. For the same compound, the TGI with SK-MEL-5 melanoma, in the assay on SR leukemia, with SW-620 colon and in the assay on U251 CNS was above 100 µM throughout.

Consider `Cc1c2oc(=O)c(C#N)cc2c2ccccn12`, for which the TGI in the assay with HCC-2998 colon, with K-562 leukemia, in the assay with KM12 colon, in the assay with MDA-N, in the assay on SF-539 CNS and with SK-MEL-2 melanoma was above 100 µM in each case. Besides, the TGI in the assay with SK-MEL-5 melanoma, in the assay with SR leukemia, in the assay on SW-620 colon and in the assay on U251 CNS was above 100 µM in each case.

For the compound `COC(=O)CCCc1nc2ccccc2nc1N=Nc1ccccc1`, the TGI with HCC-2998 colon is above 100 µM; with K-562 leukemia, 58.2 µM; in the assay on KM12 colon it was above 100 µM; in the assay with MDA-N, above 100 µM; with SF-539 CNS, above 100 µM; with SK-MEL-2 melanoma, above 100 µM. Further, the TGI is above 100 µM in the assay with SK-MEL-5 melanoma, 72.7 µM in the assay on SR leukemia, above 100 µM in the assay on SW-620 colon and above 100 µM with U251 CNS.
